Data taken from patent US11510931B2, “Compositions and methods for treating ophthalmic conditions” (MEDICON PHARMACEUTICALS, INC., priority 2016, dated 2022).
Read-outs that look alike come from different tables or passages of the source.

Test: Ocular biodistribution of PS after topical eye drops in New Zealand white rabbits (HPLC)
Type: in vivo, rabbit
Settings: New Zealand white, rabbit, topical, topical
Method: Results: The above PS formulation was administered topically as eye drops to the eyes of New Zealand white rabbits. The levels of PS in ocular tissues 1 h and 3 h later were determined by HPLC. The Table below summarizes the findings:
Results: The above PS formulation was administered topically as eye drops to the eyes of New Zealand white rabbits. The levels of PS in ocular tissues at 2 h later were determined by HPLC. The table below summarizes the findings.
Results: PS in this formulation was administered topically to the eyes of New Zealand white rabbits and its biodistribution was determined as above. The Table below summarizes the findings.
Results: PS in this formulation was administered topically as eye drops to the eyes of New Zealand white rabbits. The biodistribution of PS in ocular tissues at 3 h and 6 h was determined by HPLC. The Table below summarizes the findings.
Biodistribution of PS after topical administration: PS formulated in nanoparticles as above was administered topically as eye drops to New Zealand white rabbits. The biodistribution of PS in ocular tissues at the indicated time points post administration was determined by HPLC. The Table below summarizes the findings.
Biodistribution of PS after topical administration: PS in the formulations was administered topically as eye drops to the eyes of New Zealand white rabbits. The levels of PS in ocular tissues at 0.5 h, 1 h and 3 h were determined by HPLC. The Table below summarizes the findings.
To assess the contribution of the foregoing formulations to the PK/biodistribution of PS in the ocular tissues, a solution of PS in pure propylene glycol (PG) was studied. PG is well tolerated by the eye. A 3.5% PS solution (in PG) as eye drops was administered topically to the eyes of New Zealand white rabbits and its 1-hour biodistribution was determined by HPLC. The Table summarizes the findings.

[1] = aqueous humor, 5.4 % PS, Poloxamer 407 in-situ gel, 5.4% PS, read-out: PS in Aqueous humor
[2] = aqueous humor, 0.4% gellan gum in-situ gel, 2.4-3% PS, read-out: PS in Aqueous humor
[3] = ciliary body, 5.4 % PS, Poloxamer 407 in-situ gel, 5.4% PS, read-out: PS in Ciliary body
[4] = conjunctiva, 5.4 % PS, Poloxamer 407 in-situ gel, 5.4% PS, read-out: PS in Conjunctiva
[5] = conjunctiva, topical eye drops, mPEG-PLA nanoparticles, read-out: PS in Conjunctiva
[6] = cornea, topical eye drops, mPEG-PLA nanoparticles, read-out: PS in Cornea
[7] = iris, 5.4 % PS, Poloxamer 407 in-situ gel, 5.4% PS, read-out: PS in Iris
[8] = iris, topical eye drops, mPEG-PLA nanoparticles, read-out: PS in Iris
[9] = lacrimal gland, topical eye drops, mPEG-PLA nanoparticles, read-out: PS in Lacrimal gland
[10] = lens, 5.4 % PS, Poloxamer 407 in-situ gel, 5.4% PS, read-out: PS in Lens
[11] = retina, 3 % PS, sodium alginate/Tween 80 in-situ gel, 3% PS, read-out: PS in Retina
[12] = retina, 5.4 % PS, Poloxamer 407 in-situ gel, 5.4% PS, read-out: PS in Retina
[13] = sclera, 5.4 % PS, Poloxamer 407 in-situ gel, 5.4% PS, read-out: PS in Sclera
[14] = sclera, topical eye drops, mPEG-PLA nanoparticles, read-out: PS in Sclera
[15] = vitreous, 5.4 % PS, Poloxamer 407 in-situ gel, 5.4% PS, read-out: PS in Vitreous

For CCOP(=O)(OCC)OCCCCOC(=O)CC1=C(C)/C(=C/c2ccc([S+](C)[O-])cc2)c2ccc(F)cc21 (stereo not drawn) [PS, phosphosulindac], the concentration at 3 h [1] was 0.3 µM, the concentration at 6 h [1] was 0.3 µM and the concentration at 3 h [2] was 0 µM. It also gave a concentration at 5 h [2] of 0 nM, a concentration at 8 h [2] of 0 nM and a concentration at 1 h (choroid, 3.5 % PS solution (eye drops), topical eye drops, 3.5% PS solution in propylene glycol, read-out: PS in Choroid) of 0 µM. For the same molecule, the concentration at 6 h (choroid, 5.4 % PS, Poloxamer 407 in-situ gel, 5.4% PS, read-out: PS in Choroid) was 0 µM, the concentration at 2 h (choroid, 0.5% gellan gum in-situ gel, 2.4~3% PS, read-out: PS in Choroid) was 0 µM and the concentration at 3 h [3] was 0 µM. It also gave a concentration at 6 h [3] of 0 µM, a concentration at 2 h (ciliary body, 0.5% gellan gum in-situ gel, 2.4~3% PS, read-out: PS in Ciliary body) of 0 µM and a concentration at 1 h (conjunctiva, 3.5 % PS solution (eye drops), topical eye drops, 3.5% PS solution in propylene glycol, read-out: PS in Conjunctiva) of 3.3 µM. For the same molecule, the concentration at 3 h [4] was 5.6 µM, the concentration at 6 h [4] was 10.7 µM and the concentration at 0.5 h [5] was 121 µM. For the same molecule, the concentration at 1 h [5] was 80.4 µM, the concentration at 2 h [5] was 16.9 µM and the concentration at 8 h (cornea, 3 % PS, sodium alginate/Tween 80 in-situ gel, 3% PS, read-out: PS in Cornea) was 0 nM. The concentration at 1 h (cornea, 3.5 % PS solution (eye drops), topical eye drops, 3.5% PS solution in propylene glycol, read-out: PS in Cornea) was 38.8 µM, the concentration at 6 h (cornea, 5.4 % PS, Poloxamer 407 in-situ gel, 5.4% PS, read-out: PS in Cornea) was 13.6 µM and the concentration at 0.5 h [6] was 89.8 µM. For the same molecule, the concentration at 1 h [6] was 63.9 µM, the concentration at 2 h [6] was 43.5 µM and the concentration at 3 h [7] was 0 µM. For the same molecule, the concentration at 6 h [7] was 0 µM, the concentration at 0.5 h [8] was 2.8 µM and the concentration at 1 h [8] was 6.4 µM. The concentration at 2 h [8] was 1.3 µM, the concentration at 2 h (iris, 0.5% gellan gum in-situ gel, 2.4~3% PS, read-out: PS in Iris) was 0 µM and the concentration at 1 h (lacrimal gland, 3.5 % PS solution (eye drops), topical eye drops, 3.5% PS solution in propylene glycol, read-out: PS in Lacrimal gland) was 0.1 µM. For the same molecule, the concentration at 0.5 h [9] was 7.5 µM, the concentration at 1 h [9] was 3.5 µM and the concentration at 2 h [9] was 0.6 µM. It also gave a concentration at 2 h (lacrimal gland, 0.5% gellan gum in-situ gel, 2.4~3% PS, read-out: PS in Lacrimal Gland) of 0 µM, a concentration at 3 h [10] of 0 µM and a concentration at 6 h [10] of 0 µM. The concentration at 2 h (lens, 0.5% gellan gum in-situ gel, 2.4~3% PS, read-out: PS in Lens) was 0 µM, the concentration at 1 h [11] was 0 µM and the concentration at 3 h [11] was 0 µM. It also gave a concentration at 5 h [11] of 0 nM, a concentration at 8 h [11] of 0 nM and a concentration at 1 h (retina, 3.5 % PS solution (eye drops), topical eye drops, 3.5% PS solution in propylene glycol, read-out: PS in Retina) of 0 µM. The concentration at 3 h [12] was 0 µM, the concentration at 6 h [12] was 0 µM and the concentration at 2 h (retina, 0.5% gellan gum in-situ gel, 2.4~3% PS, read-out: PS in Retina) was 0 µM. For the same molecule, the concentration at 1 h (sclera, 3.5 % PS solution (eye drops), topical eye drops, 3.5% PS solution in propylene glycol, read-out: PS in Sclera) was 0 µM, the concentration at 3 h [13] was 0 µM and the concentration at 6 h [13] was 0 µM. For the same molecule, the concentration at 0.5 h [14] was 32.1 µM, the concentration at 1 h [14] was 17.1 µM and the concentration at 2 h [14] was 4.7 µM. The concentration at 2 h (sclera, 0.5% gellan gum in-situ gel, 2.4~3% PS, read-out: PS in Sclera) was 0 µM, the concentration at 1 h (vitreous body, 3.5 % PS solution (eye drops), topical eye drops, 3.5% PS solution in propylene glycol, read-out: PS in Vitreous body) was 0 µM and the concentration at 3 h (vitreous body, 3.5 % PS, topical eye drops, 3.5% PS/16% Vitamin E TPGS/mannitol/boric acid, read-out: PS in Vitreous body) was 0 µM. For the same molecule, the concentration at 3 h [15] was 0 µM, the concentration at 6 h [15] was 0 µM and the concentration at 2 h (vitreous, 0.5% gellan gum in-situ gel, 2.4~3% PS, read-out: PS in Vitreous) was 0 µM.
